Measured values from US11998546B2, “Pharmaceutical combinations comprising a histone deacetylase inhibitor and epothilone and methods of use thereof” (ACETYLON PHARMACEUTICALS, INC., priority 2016, dated 2024).

Assays:
TOV-21G cells [1] = assay: Cell proliferation of TOV-21G cells, crystal violet staining; assay type: cell-based; details: seven days, Compound B (2 μM) and/or epothilone B (4 nM)
Description: The cells were then stained with crystal violet (hexamethyl pararosaniline chloride) dye. The crystal violet dye was extracted in 10% v/v acetic acid, and absorbance was measured in triplicate at a wavelength of 540 nm on a spectrophotometer (FIG. 2B).

TOV-21G cells [2] = assay: Multipolar spindle formation in TOV-21G cells (DAPI, NuMA, α-tubulin staining); assay type: cell-based; details: 24 hours, 2 μM Compound B combined with 0.5 nM epothilone B vs single agents
Description: The cells were then stained with DAPI (to label DNA) and antibodies for α-tubulin and the spindle pole marker NuMA.
Cells in mitosis were then manually counted and scored for the presence of normal bipolar spindles or abnormal multipolar spindles. The frequency of cells with multipolar spindles was determined and scored in at least 100 cells from each treatment condition.

Q: What does the source list for `O=C(CCCCCCNC(=O)c1cnc(N(c2ccccc2)c2ccccc2Cl)nc1)NO` [Compound B, 2-((2-chlorophenyl)(phenyl)amino)-N-(7-(hydroxyamino)-7-oxoheptyl)pyrimidine-5-carboxamide]?
A: inhibition of tumor cell proliferation (crystal violet absorbance at 540 nm) (TOV-21G cells [1]): inhibition of tumor cell proliferation by Epotholine B was enhanced; frequency of cells with multipolar mitotic spindles (TOV-21G cells [2]): enhanced the multipolar spindle formation induced by epothilone
